Measured values from the NIST ThermoML archive (doi:10.1021/je0340699).

Experiment: molar heat capacity at saturation pressure
Details: Liquid, Large sample (1 g) DSC

CCOC(C)(C)C [2-ethoxy-2-methylpropane]
Details	molar heat capacity [J/K/mol]
277.14 K	211.4
281.17 K	213.3
283.15 K	214.2
285.16 K	215.2
287.15 K	216
289.16 K	216.9
291.14 K	217.7
293.14 K	218.5
295.15 K	219.3
297.14 K	220.1
299.15 K	220.9
301.14 K	221.7
303.16 K	222.6
305.14 K	223.3
307.15 K	224.2
309.14 K	225.3
311.15 K	225.9
313.14 K	226.7
315.16 K	227.6
317.14 K	228.6
319.15 K	229.5
321.14 K	230.1
323.15 K	231
325.14 K	231.7
327.16 K	232.6
329.15 K	233.3
331.16 K	234.2
333.15 K	235.1
335.16 K	235.9
338.16 K	237.1
339.14 K	237.4
341.15 K	238.1

CCC(C)(C)OC [2-methoxy-2-methylbutane]
Details	molar heat capacity [J/K/mol]
279.16 K	206.8
281.15 K	207.7
283.16 K	208.5
285.16 K	209.3
287.16 K	210.2
289.16 K	211
291.17 K	211.7
293.15 K	212.5
295.15 K	213.5
297.16 K	214.5
299.16 K	215.3
301.14 K	216.1
303.14 K	216.9
305.15 K	217.8
307.15 K	218.3
309.15 K	219.1
311.16 K	220.1
313.16 K	220.6
315.13 K	221.3
317.13 K	222.1
319.14 K	222.8
321.14 K	223.5
323.14 K	224.5
325.15 K	225
327.16 K	225.7
329.16 K	226.7
331.17 K	227.4
333.13 K	228.1
335.14 K	228.9
337.14 K	229.7
339.15 K	230.4
341.16 K	231
343.17 K	231.9
345.14 K	232.6
347.14 K	233.5
349.15 K	234.3
351.15 K	234.9
353.16 K	235.7
355.14 K	236.4

COC(C)(C)C [2-methoxy-2-methylpropane]
Details	molar heat capacity [J/K/mol]
277.15 K	180.9
279.15 K	181.4
281.16 K	182.3
283.15 K	183.1
285.15 K	183.8
287.14 K	184.4
289.16 K	185.3
291.15 K	186
293.16 K	186.8
295.15 K	187.7
297.14 K	188.3
299.14 K	189
301.16 K	189.7
303.16 K	190.4
305.15 K	191.1
307.15 K	191.8
309.16 K	192.6
311.16 K	193.2
313.15 K	193.9
315.15 K	194.6
317.14 K	195.2
319.16 K	196
321.15 K	196.5
323.15 K	197.3
325.15 K	198

CC(C)OC(C)C [diisopropyl ether]
Details	molar heat capacity [J/K/mol]
277.17 K	207.7
279.16 K	208.5
281.15 K	209.4
283.14 K	210.4
285.16 K	211.3
287.16 K	212.2
289.15 K	213.1
291.17 K	214
293.15 K	214.8
295.16 K	215.5
297.16 K	216.3
299.16 K	217.2
301.16 K	218
303.15 K	218.7
305.14 K	219.5
307.14 K	220.3
309.16 K	221
311.15 K	222
313.15 K	222.7
315.15 K	223.6
317.17 K	224.4
319.16 K	225.1
321.15 K	225.9
323.14 K	226.7
325.14 K	227.4
327.13 K	228.3
329.16 K	229
331.15 K	229.9
333.15 K	230.5
335.14 K	231.4
337.14 K	232.2
